Assays:
[1] = system: murine colon tumors; settings: mouse; cited from earlier work
[2] = system: vesicular stomatitis virus (VSV); format: cell-based, strain Indiana; settings: RAW 264.7 macrophages pretreated 6 h with 100 μg/ml; highest exposure MOI=10.0
[3] = system: IRF-3; experiment: Native-PAGE and Western blotting for IRF-3 dimers; format: cell-based, mouse; settings: peritoneal macrophages, DMXAA- vs. LPS-stimulated
Description: Rabbit anti-mouse IκBα phospho-specific Ab (pAb) was purchased from Santa Cruz Biotechnology, Inc. (Santa Cruz, Calif.). Rabbit anti-mouse MAPK pAb and rabbit anti-human phospho-IRF-3 pAb antibodies were purchased from Cell Signaling (Danvers, Mass.). Rabbit anti-mouse IRF-3 pAb was purchased from Zymed (South San Francisco, Calif.). Native-PAGE for the detection of IRF-3 dimers was carried out as described in Iwamura, T. et al. (2001) “Induction Of IRF-3/-7 Kinase And NF-kappaB in Response To Double-Stranded RNA And Virus Infection: Common And Unique Pathways,” Genes and Cells 6:375-388. Briefly, thioglycollate-elicited peritoneal macrophages were lysed following stimulation with either LPS or DMXAA as indicated. […] Membranes were probed with a 1:250 dilution of rabbit anti-mouse IRF-3 for 1 h at room temperature. Goat anti-rabbit IgG-HRP (Cell Signaling Technologies, Danvers, Mass.) at a 1:2000 dilution was used as the secondary Ab. Blots were developed with ECL Plus (Amersham Biosciences, Piscataway, N.J.).

[4] = system: macrophages; experiment: Expression of LPS-inducible early genes and IFN production in macrophages; format: cell-based, mouse
Description: Because all of the cellular activities listed above can be performed by another ubiquitous yet structurally diverse compound, the lipopolysaccharide (LPS) of Gram-negative bacteria, the ability of DMXAA to modulate the expression of a subset of well-characterized LPS-inducible early genes in macrophages was studied in an effort to further elucidate the mechanism of DMXAA action. DMXAA's ability to induce IFN production by macrophages and to modulate the expression of the genes that encode transcription factors IRF-1, IRF-2, and ICSBP members of the interferon regulatory factor (IRF) gene family was also studied. […] These genes are: TNF-α, IL-1β, IP-10, Type 2 Tumor Necrosis Factor Receptor (TNFR-2), D3, and D8.

Question: Which results are given for `Cc1ccc2c(=O)c3cccc(CC(=O)O)c3oc2c1C` [DMXAA, 5,6-dimethylxanthenone-4-acetic acid]?
Answer: potency in vivo against murine colon tumors relative to FAA [1]: 12 fold; VSV infection and CPE [2]: completely prevents VSV infection and CPE; activated IRF-3 dimers [3]: much more abundant and longer-lived; TNF-α gene expression [4]: only low induction; expression of the genes encoding IP-10, D8, and D3 [4]: up-regulated to levels similar to those observed upon LPS induction; induction of TNFR-2 and IL-1β genes [4]: insignificant induction; induction of Type 1 Interferons (IFNs) ([4]; mouse macrophages): extremely potent inducer

From patent US8957108B2, “Use of 5,6-dimethylxanthenone-4-acetic acid as an antiviral agent” (University of Maryland, Baltimore, priority 2006, dated 2015)
